6 compounds from US12139520B2 (priority 2020, dated 2024) can be followed below.

What is called EC50 is the concentration at which the effect is half-maximal.

For one assay, the target named is hAM1 receptor (Homo sapiens, UniProt O60895+Q16602). The experiment in a line: cAMP assay for in vitro receptor activation, hAM1-R. Type of assay: cell-based. The settings on record: cAMP assay, hAM1 receptor; read-out: hAM1R EC50. The essentials:
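Receptor activation, read as cAMP, was assessed in thawed cells of a monoclonal hAM1-overexpressing stable line, plated at 8000 cells/well in DPBS supplemented with 0.05% casein and 0.5 mM IBMX.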

In another assay the target is T1, hAMY3 receptor (Homo sapiens, UniProt O60896+P30988).
T1 sequence (P30988 25-474): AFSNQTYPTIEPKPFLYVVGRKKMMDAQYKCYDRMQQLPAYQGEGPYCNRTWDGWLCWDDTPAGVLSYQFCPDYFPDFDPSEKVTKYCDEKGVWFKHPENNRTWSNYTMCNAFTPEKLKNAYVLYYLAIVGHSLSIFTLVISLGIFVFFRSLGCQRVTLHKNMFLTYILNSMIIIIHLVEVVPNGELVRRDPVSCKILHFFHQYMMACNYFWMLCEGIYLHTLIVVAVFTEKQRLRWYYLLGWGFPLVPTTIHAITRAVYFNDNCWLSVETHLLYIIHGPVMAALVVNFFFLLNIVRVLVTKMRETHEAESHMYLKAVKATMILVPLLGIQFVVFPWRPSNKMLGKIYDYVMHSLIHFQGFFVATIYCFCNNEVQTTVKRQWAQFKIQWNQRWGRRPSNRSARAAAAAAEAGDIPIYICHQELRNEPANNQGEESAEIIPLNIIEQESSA
T1 sequence (O60896 24-148 partner): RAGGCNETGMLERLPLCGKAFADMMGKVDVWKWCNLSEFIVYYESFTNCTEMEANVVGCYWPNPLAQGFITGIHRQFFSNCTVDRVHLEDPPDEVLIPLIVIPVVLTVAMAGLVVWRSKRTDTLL
The assay is described as follows: cAMP assay for in vitro receptor activation, hAMY3-R. The assay is classed as cell-based. The settings on record: cAMP assay, hAMY3 receptor; read-out: hAMY3R EC50. The essentials: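 Receptor activation was measured as cAMP accumulation in a monoclonal cell line stably overexpressing hAMY3. Stimulation with graded doses lasted 30 min at room temperature in the presence of 0.5 mM IBMX, with human amylin as positive control.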
On the technique in general: cAMP levels reflect the balance of adenylyl cyclase and phosphodiesterase activity.

Numbered stars: 1 amine (or outer) side, 2 acyl side, 3 side chain; on linkers, the order of the positions; unused ones are H or OH. Bridge positions count the residues as written; N and C are the ends. Square brackets hold non-standard residues; d marks the D form. Side chains are listed from the residue outwards. Peptide text beside a SMILES is read from it. * marks the point of attachment. C20 diacid = O=C(O)CCCCCCCCCCCCCCCCCCC(=O)*; γGlu = O=C(O)[C@H](CCC(=O)[*:2])N[*:1]; Hyp = O=C(O)[C@@H]1C[C@@H](O)CN1; AEEA = NCCOCCOCC(=O)O

Sequence of hAM1 receptor (Q16602 23-461): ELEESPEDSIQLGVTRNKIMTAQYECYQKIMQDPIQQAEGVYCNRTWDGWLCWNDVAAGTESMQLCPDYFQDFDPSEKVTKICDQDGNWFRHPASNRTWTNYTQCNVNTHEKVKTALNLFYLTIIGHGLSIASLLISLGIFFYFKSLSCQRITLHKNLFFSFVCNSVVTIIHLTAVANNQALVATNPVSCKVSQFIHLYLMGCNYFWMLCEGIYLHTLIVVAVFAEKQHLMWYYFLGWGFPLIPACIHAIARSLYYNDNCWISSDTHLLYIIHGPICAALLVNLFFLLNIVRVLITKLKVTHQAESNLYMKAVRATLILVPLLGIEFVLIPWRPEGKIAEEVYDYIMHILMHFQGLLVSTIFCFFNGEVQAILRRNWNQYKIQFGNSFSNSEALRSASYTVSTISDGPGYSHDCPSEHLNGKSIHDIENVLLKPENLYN
Sequence of hAM1 receptor (O60895 43-175 partner): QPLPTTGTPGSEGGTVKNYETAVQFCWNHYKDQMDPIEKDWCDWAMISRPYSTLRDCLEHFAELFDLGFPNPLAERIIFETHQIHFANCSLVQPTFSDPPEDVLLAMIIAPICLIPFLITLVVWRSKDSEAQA

For the compound `CC[C@H](C)[C@H](NC(=O)[C@H](CCC(N)=O)NC(=O)[C@H](CC(=O)O)NC(=O)[C@H](C)NC(=O)[C@H](CC(C)C)NC(=O)[C@H](CCCNC(=N)N)NC(=O)[C@H](CCC(N)=O)NC(=O)[C@@H](NC(=O)[C@@H](NC(=O)[C@@H]1CSSC[C@H](NC(=O)[C@H](CCCCN)NC(=O)CC[C@H](NC(=O)CCCCCCCCCCCCCCCCCCC(=O)O)C(=O)O)C(=O)N[C@@H](CC(N)=O)C(=O)N[C@@H]([C@@H](C)O)C(=O)N[C@@H](C)C(=O)N[C@@H]([C@@H](C)O)C(=O)N1)[C@@H](C)O)C(C)C)C(=O)N[C@@H](Cc1ccc(O)cc1)C(=O)N[C@@H](CCC(N)=O)C(=O)N[C@@H](Cc1ccccc1)C(=O)N[C@H](C(=O)N[C@@H](CC(=O)O)C(=O)N[C@@H](CCCCN)C(=O)N[C@@H](CC(=O)O)C(=O)N[C@@H](CCCCN)C(=O)N[C@@H](CC(=O)O)C(=O)N[C@@H](CC(N)=O)C(=O)N[C@H](C(=O)N[C@@H](C)C(=O)N1CCC[C@H]1C(=O)N1CCC[C@H]1C(=O)N[C@H](C(=O)N[C@@H](CC(N)=O)C(=O)N[C@H](C(=O)NCC(=O)N[C@@H](CO)C(=O)N[C@@H](CC(N)=O)C(=O)NCC(=O)N1C[C@H](O)C[C@H]1C(N)=O)C(C)C)[C@@H](C)O)C(C)C)[C@@H](C)O` [compound 5] ({C20 diacid-γGlu}-KCNTATCTVQRLADQIYQFTDKDKDNVAPPTNVGSNG[Hyp]-NH2; disulfide 2-7), the EC50 on hAM1 receptor was greater than 5000 nM; on hAMY3 receptor, 0.006 nM.

In the case of `CC[C@H](C)[C@H](NC(=O)[C@H](C)NC(=O)CNC(=O)[C@H](Cc1ccccc1)NC(=O)[C@H](CC(N)=O)NC(=O)[C@H](CC(N)=O)NC(=O)[C@H](CO)NC(=O)[C@H](CO)NC(=O)[C@H](Cc1c[nH]cn1)NC(=O)[C@@H](NC(=O)[C@H](CC(C)C)NC(=O)[C@H](Cc1ccccc1)NC(=O)[C@H](CC(N)=O)NC(=O)[C@H](C)NC(=O)[C@H](CC(C)C)NC(=O)[C@H](CCCNC(=N)N)NC(=O)[C@H](CCC(N)=O)NC(=O)[C@@H](NC(=O)[C@H](C)NC(=O)[C@@H]1CSSC[C@H](NC(=O)[C@@H](N)CCCCN)C(=O)N[C@@H](CC(N)=O)C(=O)N[C@@H]([C@@H](C)O)C(=O)N[C@@H](C)C(=O)N[C@@H]([C@@H](C)O)C(=O)N1)[C@@H](C)O)C(C)C)C(=O)N[C@@H](CC(C)C)C(=O)N1CCC[C@H]1C(=O)N[C@@H](CO)C(=O)N[C@H](C(=O)N[C@@H](CCCCN)C(=O)N[C@H](C(=O)NCC(=O)N[C@@H](CO)C(=O)N[C@@H](CC(N)=O)C(=O)NCC(=O)N[C@@H](Cc1ccc(O)cc1)C(N)=O)C(C)C)[C@@H](C)O` [compound 59] (H-KCNTATCATQRLANFLVHSSNNFGAILPSTKVGSNGY-NH2; disulfide 2-7), the EC50 on hAM1 receptor was greater than 5000 nM; on hAMY3 receptor it was 0.012 nM.

As to `CC[C@H](C)[C@H](NC(=O)[C@H](CCC(N)=O)NC(=O)[C@H](Cc1c[nH]cn1)NC(=O)[C@H](C)NC(=O)[C@H](CC(C)C)NC(=O)[C@H](CCCNC(=N)N)NC(=O)[C@H](CCC(N)=O)NC(=O)[C@@H](NC(=O)[C@@H](NC(=O)[C@@H]1CSSC[C@H](NC(=O)[C@H](CCCCN)NC(=O)CC[C@H](NC(=O)CCCCCCCCCCCCCCCCCCC(=O)O)C(=O)O)C(=O)N[C@@H](CC(N)=O)C(=O)N[C@@H]([C@@H](C)O)C(=O)N[C@@H](C)C(=O)N[C@@H]([C@@H](C)O)C(=O)N1)[C@@H](C)O)C(C)C)C(=O)N[C@@H](C)C(=O)N[C@@H](CCC(N)=O)C(=O)N[C@@H](Cc1ccccc1)C(=O)N[C@H](C(=O)N[C@@H](CC(=O)O)C(=O)N[C@@H](CCCCN)C(=O)N[C@@H](CC(=O)O)C(=O)N[C@@H](CCCCN)C(=O)N[C@@H](CC(=O)O)C(=O)N[C@@H](CC(N)=O)C(=O)N[C@H](C(=O)N[C@@H](C)C(=O)N1CCC[C@H]1C(=O)N1CCC[C@H]1C(=O)N[C@H](C(=O)N[C@@H](CC(N)=O)C(=O)N[C@H](C(=O)NCC(=O)N[C@@H](CO)C(=O)N[C@@H](CC(N)=O)C(=O)NCC(=O)N1C[C@H](O)C[C@H]1C(N)=O)C(C)C)[C@@H](C)O)C(C)C)[C@@H](C)O` [compound 61] ({C20 diacid-γGlu}-KCNTATCTVQRLAHQIAQFTDKDKDNVAPPTNVGSNG[Hyp]-NH2; disulfide 2-7), the half-maximal effective concentration (EC50) on hAM1 receptor was greater than 5000 nM; on hAMY3 receptor it was 0.012 nM.

Take `CC[C@H](C)[C@H](NC(=O)[C@H](CCC(N)=O)NC(=O)[C@H](CCC(=O)O)NC(=O)[C@H](C)NC(=O)[C@H](CC(C)C)NC(=O)[C@H](CCCNC(=N)N)NC(=O)[C@H](CCC(N)=O)NC(=O)[C@@H](NC(=O)[C@@H](NC(=O)[C@@H]1CSSC[C@H](NC(=O)[C@@H](N)CCCCN)C(=O)N[C@@H](CC(N)=O)C(=O)N[C@@H]([C@@H](C)O)C(=O)N[C@@H](C)C(=O)N[C@@H]([C@@H](C)O)C(=O)N1)[C@@H](C)O)C(C)C)C(=O)N[C@@H](Cc1ccc(O)cc1)C(=O)N[C@@H](CCC(N)=O)C(=O)N[C@@H](Cc1ccccc1)C(=O)N[C@H](C(=O)N[C@@H](CC(=O)O)C(=O)N[C@@H](CCCCN)C(=O)N[C@@H](CC(=O)O)C(=O)N[C@@H](CCCCN)C(=O)N[C@@H](CC(=O)O)C(=O)N[C@@H](CCCCNC(=O)COCCOCCNC(=O)COCCOCCNC(=O)CC[C@H](NC(=O)CCCCCCCCCCCCCCCCCCC(=O)O)C(=O)O)C(=O)N[C@H](C(=O)N[C@@H](C)C(=O)N1CCC[C@H]1C(=O)N1CCC[C@H]1C(=O)N[C@H](C(=O)N[C@@H](CC(N)=O)C(=O)N[C@H](C(=O)NCC(=O)N[C@@H](CO)C(=O)N[C@@H](CC(N)=O)C(=O)NCC(=O)N1C[C@H](O)C[C@H]1C(N)=O)C(C)C)[C@@H](C)O)C(C)C)[C@@H](C)O` [compound 41] (H-KCNTATCTVQRLAEQIYQFTDKDKDK([AEEA-AEEA-γGlu-C20 diacid])VAPPTNVGSNG[Hyp]-NH2; disulfide 2-7; N-terminus assumed): the figures for the concentration for a half-maximal effect (EC50) at hAM1 receptor and at hAMY3 receptor were greater than 5000 nM and 0.01 nM, respectively.

As for `CC[C@H](C)[C@H](NC(=O)[C@H](CCC(N)=O)NC(=O)[C@H](Cc1c[nH]cn1)NC(=O)[C@H](C)NC(=O)[C@H](CC(C)C)NC(=O)[C@H](CCCNC(=N)N)NC(=O)[C@H](CCC(N)=O)NC(=O)[C@@H](NC(=O)[C@@H](NC(=O)[C@@H]1CSSC[C@H](NC(=O)[C@H](CCCCN)NC(=O)CC[C@H](NC(=O)CCCCCCCCCCCCCCCCCCC(=O)O)C(=O)O)C(=O)N[C@@H](CC(N)=O)C(=O)N[C@@H]([C@@H](C)O)C(=O)N[C@@H](C)C(=O)N[C@@H]([C@@H](C)O)C(=O)N1)[C@@H](C)O)C(C)C)C(=O)N[C@@H](C)C(=O)N[C@@H](CCC(N)=O)C(=O)N[C@@H](Cc1ccccc1)C(=O)N[C@H](C(=O)N[C@@H](CC(=O)O)C(=O)N[C@@H](CCCCN)C(=O)N[C@@H](CC(N)=O)C(=O)N[C@@H](CCCCN)C(=O)N[C@@H](CC(=O)O)C(=O)N[C@@H](CC(N)=O)C(=O)N[C@H](C(=O)N[C@@H](C)C(=O)N1CCC[C@H]1C(=O)N1CCC[C@H]1C(=O)N[C@H](C(=O)N[C@@H](CC(N)=O)C(=O)N[C@H](C(=O)NCC(=O)N[C@@H](CO)C(=O)N[C@@H](CC(N)=O)C(=O)NCC(=O)N1C[C@H](O)C[C@H]1C(N)=O)C(C)C)[C@@H](C)O)C(C)C)[C@@H](C)O` [compound 87] ({C20 diacid-γGlu}-KCNTATCTVQRLAHQIAQFTDKNKDNVAPPTNVGSNG[Hyp]-NH2; disulfide 2-7), the EC50 was greater than 5000 nM at hAM1 receptor and 0.015 nM at hAMY3 receptor.

Regarding `CC[C@H](C)[C@H](NC(=O)[C@H](CCC(N)=O)NC(=O)[C@H](Cc1c[nH]cn1)NC(=O)[C@H](C)NC(=O)[C@H](CC(C)C)NC(=O)[C@H](CCCNC(=N)N)NC(=O)[C@H](C)NC(=O)[C@@H](NC(=O)[C@@H](NC(=O)[C@@H]1CSSC[C@H](NC(=O)[C@H](CCCCN)NC(=O)CC[C@H](NC(=O)CCCCCCCCCCCCCCCCCCC(=O)O)C(=O)O)C(=O)N[C@@H](CC(N)=O)C(=O)N[C@@H]([C@@H](C)O)C(=O)N[C@@H](C)C(=O)N[C@@H]([C@@H](C)O)C(=O)N1)[C@@H](C)O)C(C)C)C(=O)N[C@@H](CC(N)=O)C(=O)N[C@@H](CCC(N)=O)C(=O)N[C@@H](Cc1ccccc1)C(=O)N[C@H](C(=O)N[C@@H](CC(=O)O)C(=O)N[C@@H](CCCCN)C(=O)N[C@@H](CC(=O)O)C(=O)N[C@@H](CCCCN)C(=O)N[C@@H](CC(=O)O)C(=O)N[C@@H](CC(N)=O)C(=O)N[C@H](C(=O)N[C@@H](C)C(=O)N1CCC[C@H]1C(=O)N1CCC[C@H]1C(=O)N[C@H](C(=O)N[C@@H](CC(N)=O)C(=O)N[C@H](C(=O)NCC(=O)N[C@@H](CO)C(=O)N[C@@H](CC(N)=O)C(=O)NCC(=O)N1C[C@H](O)C[C@H]1C(N)=O)C(C)C)[C@@H](C)O)C(C)C)[C@@H](C)O` [compound 86] ({C20 diacid-γGlu}-KCNTATCTVARLAHQINQFTDKDKDNVAPPTNVGSNG[Hyp]-NH2; disulfide 2-7), the half-maximal effective concentration (EC50) is greater than 5000 nM at hAM1 receptor and 0.015 nM on hAMY3 receptor.
